Results reported in ChEMBL document CHEMBL5143512, “Synthesis and in vitro antitrypanosomal evaluation of novel 6-heteroarylidene-substituted quinolone derivatives” (Eur J Med Chem, 2022).
pIC50: −log10 of the molar value.

Tests used:
[1] = system: Trypanosoma brucei brucei; assay: Antitrypanosomal activity against Trypanosoma brucei brucei 427 trypomastigotes assessed as reduction in parasite growth incubated for 48 hrs by resazurin dye based fluorescence assay; type: functional, organism-based; conditions: Trypanosoma brucei, 427, 48 h
[2] = Cytotoxicity against human hTERT-BJ cells assessed as cell viability at 1 uM incubated for 48 hrs by MTT based colorimetric assay; type: toxicity; conditions: read-out: Activity
[3] = Cytotoxicity against African green monkey Vero cells assessed as cell viability at 10 uM incubated for 48 hrs by MTT based colorimetric assay; type: toxicity; conditions: chlorocebus sabaeus, read-out: Activity
hTERT-BJ = assay: Cytotoxicity against human hTERT-BJ cells assessed as reduction in cell viability at 10 uM incubated for 48 hrs by MTT based colorimetric assay; type: toxicity
[4] = Cytotoxicity against African green monkey Vero cells assessed as cell viability at 5 uM incubated for 48 hrs by MTT based colorimetric assay; type: toxicity; conditions: chlorocebus sabaeus, read-out: Activity
[5] = Cytotoxicity against human hTERT-BJ cells assessed as cell viability at 5 uM incubated for 48 hrs by MTT based colorimetric assay; type: toxicity; conditions: read-out: Activity
[6] = Cytotoxicity against human hTERT-BJ cells assessed as cell viability at 10 uM incubated for 48 hrs by MTT based colorimetric assay; type: toxicity; conditions: read-out: Activity
[7] = Selectivity index, ratio of CC50 for African green monkey Vero cells to IC50 for Antitrypanosomal activity against Trypanosoma brucei brucei 427 trypomastigotes; type: toxicity; conditions: read-out: Ratio CC50/IC50
[8] = Cytotoxicity against African green monkey Vero cells assessed as cell viability at 1 uM incubated for 48 hrs by MTT based colorimetric assay; type: toxicity; conditions: chlorocebus sabaeus, read-out: Activity
[9] = Cytotoxicity against African green monkey Vero cells assessed as reduction in cell viability incubated for 48 hrs by MTT based colorimetric assay; type: toxicity; conditions: chlorocebus sabaeus

| SMILES | pIC50 [1] | further results |
| --- | --- | --- |
| CCOC(=O)c1cn(Cc2ccccc2)c2ccc(C(=O)/C=C/c3ccc([N+](=O)[O-])o3)cc2c1=O | 6.30 | – |
| CCOC(=O)c1cn(CCO)c2ccc(C(=O)/C=C/c3ccc([N+](=O)[O-])o3)cc2c1=O | 5.68 | – |
| Cc1cccc(Cn2cc(C(=O)NCCN3CCNCC3)c(=O)c3cc(C(=O)/C=C/c4ccc([N+](=O)[O-])o4)ccc32)c1 | 5.62 | – |
| COCCNC(=O)c1c[nH]c2ccc(C(=O)/C=C/c3ccc([N+](=O)[O-])o3)cc2c1=O | 5.46 | – |
| COCCNC(=O)c1cn(Cc2ccc(C)cc2)c2ccc(C(=O)/C=C/c3ccc([N+](=O)[O-])o3)cc2c1=O | 6.92 | – |
| CCOC(=O)c1cn(CC)c2ccc(C(=O)/C=C/c3ccc(Br)o3)cc2c1=O | 5.88 | – |
| O=C(/C=C/c1ccc([N+](=O)[O-])o1)c1ccc2c(c1)c(=O)c(C(=O)NCCOCCO)cn2Cc1ccccc1 | 6.55 | – |
| CC(=O)c1ccc2c(c1)c(=O)c(C(=O)NCCOCCO)cn2Cc1ccc(Br)cc1 | 5.15 | – |
| CCOC(=O)c1cn(CCO)c2ccc(C(=O)/C=C/c3ccc([N+](=O)[O-])s3)cc2c1=O | 6.42 | – |
| CCOC(=O)c1cn(CC)c2ccc(C(=O)/C=C/c3ccc([N+](=O)[O-])s3)cc2c1=O | 6.01 | – |
| O=C1/C(=C/c2ccc([N+](=O)[O-])o2)COc2ccccc21 | 6.29 | – |
| O=C1/C(=C/c2ccc([N+](=O)[O-])o2)CCc2ccccc21 | 6.44 | – |
| COCCNC(=O)c1cn(Cc2ccccc2)c2ccc(C(=O)/C=C/c3ccc([N+](=O)[O-])o3)cc2c1=O | 6.33 | – |
| N=C(N)c1ccc(OCCCCCOc2ccc(C(=N)N)cc2)cc1 [PENTAMIDINE] | 8.00 | – |
| CCOC(=O)c1cn(CC(N)=O)c2ccc(C(=O)/C=C/c3ccc([N+](=O)[O-])o3)cc2c1=O | 4.82 | – |
| CCOC(=O)c1cn(CC)c2ccc(C(=O)/C=C/c3ccc([N+](=O)[O-])o3)cc2c1=O | 6.22 | – |
| Cc1ccc(Cn2cc(C(=O)NCCOCCO)c(=O)c3cc(C(=O)/C=C/c4ccc([N+](=O)[O-])o4)ccc32)cc1 | 7.10 | viability at 48 h, 1 µM [2]: 118%; viability at 48 h, 10 µM [3]: 6%; Activity (hTERT-BJ): < 25%; viability at 48 h, 5 µM [4]: 20%; viability at 48 h, 5 µM [5]: 88%; viability at 48 h, 10 µM [6]: 66%; selectivity ratio [7]: 42.5; viability at 48 h, 1 µM [8]: 105%; CC50 at 48 h [9]: 3400 nM |
